Experimental data reported in patent US9096832B2, “Differentiation of human embryonic stem cells” (LifeScan, Inc., priority 2007, dated 2015).

Tested on: H9 embryonic stem cells
Test: Microarray analysis of definitive endoderm stage cells on […] or MEFs +/- Wnt-3a (Table VI)
Format: cell-based, human
Details: for mean normalized intensity: ESTs: DE treatment in low serum on MEFS, log format
Protocol: Controls for each group included cells plated on [sequence]—coated dishes and cultured in MEF-conditioned medium or cells plated on MEFs and cultured in ES medium. All groups contained three biological replicates and each biological replicate was repeated on two separate gene chips.
Sample preparation, hybridization, and image analysis were performed according to the Affymetrix Human Genome U133 Plus 2.0 Array. Following normalization and a log transformation, data analysis was performed using OmniViz® software (MA) and [sequence] […] Significant differences in gene expression between the samples were evaluated using analysis of variance and an F-test with adjusted P-value (Benjamini and Hochberg correction) of less-than or equal to 0.05. Only genes with a present call in at least one group were included in the analysis.

Substance: Activin A: activin A (a member of the TGFβ superfamily), R&D Systems; 'w/o wnt' in Table VII = 100 ng/ml Activin A without Wnt3a
- mean normalized intensity: ESTs (gene line r2134): −0.9461
- mean normalized intensity: ESTs (gene line r2148): 5.334
- Intensity (log): 6-phosphofructo-2-kinasefructose-2,6-biphosphatase 4 (low serum, on MATRIGEL): −0.2429
- Intensity (log): ESTs, Highly similar to IHH_HUMAN INDIAN HEDGEHOG PROTEIN PRECURSOR (H. sapiens) (low serum, on MATRIGEL): −0.654
- Intensity (log): ESTs, Moderately similar to JE0284 Mm-1 cell derived transplantability-associated protein 1b (H. sapiens) (low serum, on MATRIGEL): −2.377
- Intensity (log): ESTs, Weakly similar to FCE2 MOUSE LOW AFFINITY IMMUNOGLOBULIN EPSILON FC RECEPTOR (M. musculus) (low serum, on MATRIGEL): 0.4942
- Intensity (log): ESTs, Weakly similar to the 331st table hypothetical protein KIAA0555 (H. sapiens) (low serum, on MATRIGEL): −1.574
- Intensity (log): G protein-coupled receptor (low serum, on MATRIGEL): 1.507
- Intensity (log): G protein-coupled receptor 49 (low serum, on MATRIGEL): 0.2655
- Intensity (log): Homo sapiens Kell blood group (KEL), mRNA (low serum, on MATRIGEL): −2.205
- Intensity (log): Homo sapiens MLL septin-like fusion (MSF), mRNA (low serum, on MATRIGEL): −3.292
- Intensity (log): Homo sapiens Mix-like homeobox protein 1 (MILD1) mRNA, complete cds (low serum, on MATRIGEL): −1.546
- Intensity (log): Homo sapiens Rho GTPase activating protein 6 (ARHGAP6), transcript variant 2, mRNA (low serum, on MATRIGEL): −1.104
- Intensity (log): Homo sapiens TBX3-iso protein (TBX3-iso), mRNA (low serum, on MATRIGEL): −2.346
- Intensity (log): Homo sapiens angiopoietin 2 (ANGPT2), mRNA (low serum, on MATRIGEL): −2.93
- Intensity (log): Homo sapiens ankyrin-like with transmembrane domains 1 (ANKTM1), mRNA (low serum, on MATRIGEL): −1.109
- Intensity (log): Homo sapiens apolipoprotein A-I (APOA1), mRNA (low serum, on MATRIGEL): −1.471
- Intensity (log): Homo sapiens apolipoprotein A-II (APOA2), mRNA (low serum, on MATRIGEL): −1.033
- Intensity (log): Homo sapiens arylsulfatase E (chondrodysplasia punctata 1) (ARSE), mRNA (low serum, on MATRIGEL): 0.283
- Intensity (log): Homo sapiens atrophin-1 interacting protein 1; activin receptor interacting protein 1 (KIAA0705), mRNA (low serum, on MATRIGEL): −4.308
- Intensity (log): Homo sapiens beta-site APP cleaving enzyme (BACE) mRNA, complete cds (low serum, on MATRIGEL): −2.0354
- Intensity (log): Homo sapiens cDNA FLJ11550 fis, clone HEMBA1002970 (low serum, on MATRIGEL): −1.222
- Intensity (log): Homo sapiens cDNA FLJ12993 fis, clone NT2RP3000197 (low serum, on MATRIGEL): 0.1473
- Intensity (log): Homo sapiens cDNA FLJ13221 fis, clone NT2RP4002075 (low serum, on MATRIGEL): 0.3557
- Intensity (log): Homo sapiens cardiac ventricular troponin C mRNA, complete cds (low serum, on MATRIGEL): −0.5497
- Intensity (log): Homo sapiens cartilage linking protein 1 (CRTL1), mRNA (low serum, on MATRIGEL): −1.315
- Intensity (log): Homo sapiens cell adhesion molecule with homology to L1CAM (close homologue of L1) (CHL1), mRNA (low serum, on MATRIGEL): −0.5412
- Intensity (log): Homo sapiens chromosome 19, cosmid R31181 (low serum, on MATRIGEL): −0.2589
- Intensity (log): Homo sapiens clone 23736 mRNA sequence (low serum, on MATRIGEL): −0.04718
- Intensity (log): Homo sapiens cryptic mRNA, complete cds (low serum, on MATRIGEL): 0.1049
- Intensity (log): Homo sapiens cystatin S (CST4), mRNA (low serum, on MATRIGEL): 0.9245
- Intensity (log): Homo sapiens cystatin SA (CST2), mRNA (low serum, on MATRIGEL): −0.1022
- Intensity (log): Homo sapiens cystatin SN (CST1), mRNA (low serum, on MATRIGEL): 0.07293
- Intensity (log): Homo sapiens cytidine deaminase (CDA), mRNA (low serum, on MATRIGEL): −3.891
- Intensity (log): Homo sapiens dual specificity phosphatase 4 (DUSP4), mRNA (low serum, on MATRIGEL): 0.9539
- Intensity (log): Homo sapiens fibroblast growth factor 8 (androgen-induced) (FGF8), mRNA (low serum, on MATRIGEL): −4.328
- Intensity (log): Homo sapiens fibroblast growth factor 17 (FGF17), mRNA (low serum, on MATRIGEL): −0.8946
- Intensity (log): Homo sapiens frizzled-related protein (FRZB), mRNA (low serum, on MATRIGEL): 0.565
- Intensity (log): Homo sapiens gastrin-releasing peptide (GRP), mRNA (low serum, on MATRIGEL): −2.741
- Intensity (log): Homo sapiens glycophorin E (GYPE), mRNA (low serum, on MATRIGEL): −2.016
- Intensity (log): Homo sapiens glycophorin Erik STA (GPErik) gene complete cds (low serum, on MATRIGEL): −1.194
- Intensity (log): Homo sapiens growth differentiation factor 3 (GDF3), mRNA (low serum, on MATRIGEL): 1.673
- Intensity (log): Homo sapiens haptoglobin (HP), mRNA (low serum, on MATRIGEL): −1.101
- Intensity (log): Homo sapiens haptoglobin-related protein (HPR), mRNA (low serum, on MATRIGEL): −2.6068
- Intensity (log): Homo sapiens homeobox protein goosecoid mRNA, complete cds (low serum, on MATRIGEL): −4.42
- Intensity (log): Homo sapiens hypothetical protein FLJ10718 (FLJ10718), mRNA (low serum, on MATRIGEL): 2.605
- Intensity (log): Homo sapiens hypothetical protein FLJ10970 (FLJ10970), mRNA (low serum, on MATRIGEL): −0.432
- Intensity (log): Homo sapiens hypothetical protein FLJ11316 (FLJ11316), mRNA (low serum, on MATRIGEL): −0.9047
- Intensity (log): Homo sapiens hypothetical protein FLJ22252 similar to SRY-box containing gene 17 (FLJ22252), mRNA (low serum, on MATRIGEL): 1.368
- Intensity (log): Homo sapiens lumican (LUM), mRNA (low serum, on MATRIGEL): −4.057
- Intensity (log): Homo sapiens mRNA for GATA-6, complete cds (low serum, on MATRIGEL): 2.219
- Intensity (log): Homo sapiens mRNA for KIAA1409 protein, partial cds (low serum, on MATRIGEL): 0.3683
- Intensity (log): Homo sapiens mRNA; cDNA DKFZp434D0818 (from clone DKFZp434D0818) (low serum, on MATRIGEL): −2.634
- Intensity (log): Homo sapiens mRNA; cDNA DKFZp586J0624 (from clone DKFZp586J0624); complete cds (low serum, on MATRIGEL): −0.8352
- Intensity (log): Homo sapiens presenilin stabilization factor b (PSF) mRNA, complete cds; alternatively spliced (low serum, on MATRIGEL): −0.8617
- Intensity (log): Homo sapiens reserved (KCNK12), mRNA (low serum, on MATRIGEL): −0.4687
- Intensity (log): Homo sapiens retinoid X receptor, gamma (RXRG), mRNA (low serum, on MATRIGEL): −2.375
- Intensity (log): Homo sapiens sema domain, immunoglobulin domain (Ig), short basic domain, secreted, (semaphorin) 3E (SEMA3E), mRNA (low serum, on MATRIGEL): −0.786
- Intensity (log): Homo sapiens sema domain, seven thrombospondin repeats (type 1 and type 1-like), transmembrane domain (TM) and short cytoplasmic domain, (semaphorin) 5A (SEMA5A), mRNA (low serum, on MATRIGEL): −1.533
- Intensity (log): Homo sapiens solute carrier family 21 (prostaglandin transporter), member 2 (SLC21A2), mRNA (low serum, on MATRIGEL): 0.7114
- Intensity (log): Homo sapiens type VI collagen alpha 2 chain precursor (COL6A2) mRNA, complete cds, alternatively spliced (low serum, on MATRIGEL): 1.7011
- Intensity (log): Homo sapiens, alpha-1 (VI) collagen (low serum, on MATRIGEL): −3.662
- Intensity (log): Homo sapiens, clone MGC: 4655, mRNA, complete cds (low serum, on MATRIGEL): 2.3772
- Intensity (log): Human (clone 8B1) Br-cadherin mRNA, complete cds (low serum, on MATRIGEL): −2.179
- Intensity (log): Human (clone HSY3RR) neuropeptide Y receptor (NPYR) mRNA, complete cds (low serum, on MATRIGEL): 1.775
- Intensity (log): Human DNA sequence from clone RP1-181C24 on chromosome 6p11.1-12.2. Contains the 3 end of the BMP5 gene for bone morphogenetic protein 5, ESTs, STSs and GSSs (low serum, on MATRIGEL): −3.723
- Intensity (log): Human Fritz mRNA, complete cds (low serum, on MATRIGEL): 0.4366
- Intensity (log): Human dipeptidyl peptidase IV (CD26) mRNA, complete cds (low serum, on MATRIGEL): −3.611
- Intensity (log): Human glycophorin HeP2 mRNA, partial cds (low serum, on MATRIGEL): −0.8435
- Intensity (log): Human link protein mRNA, complete cds (low serum, on MATRIGEL): −1.94
- Intensity (log): Human mRNA for alpha-1 type II collagen (low serum, on MATRIGEL): −2.8736
- Intensity (log): Human mRNA for apolipoprotein AI (apo AI) (low serum, on MATRIGEL): 0.2151
- Intensity (log): Human prostatic secretory protein 57 mRNA, complete cds (low serum, on MATRIGEL): −3.013
- Intensity (log): KIAA1462 protein (low serum, on MATRIGEL): −3.846
- Intensity (log): MCP-1 = monocyte chemotactic protein (human, aortic endothelial cells, mRNA, 661 nt) (low serum, on MATRIGEL): −2.276
- Intensity (log): Rho GDP dissociation inhibitor (GDI) alpha (low serum, on MATRIGEL): −1.544
- Intensity (log): WAS protein family, member 2 (low serum, on MATRIGEL): −2.187
- Intensity (log): collagen, type IX, alpha 2 (low serum, on MATRIGEL): 1.27
- Intensity (log): collagen, type VI, alpha 1 (low serum, on MATRIGEL): −1.418
- Intensity (log): hepatocyte nuclear factor 4, alpha (low serum, on MATRIGEL): −4.266
- Intensity (log): homeo box HB9 (low serum, on MATRIGEL): −1.656
- Intensity (log): hypothetical protein FLJ21032 (low serum, on MATRIGEL): 0.3557
- Intensity (log): hypothetical protein FLJ23091 (low serum, on MATRIGEL): 0.3234
- Intensity (log): microfibrillar-associated protein 4 (low serum, on MATRIGEL): 0.06379
- Intensity (log): myristoylated alanine-rich protein kinase C substrate (MARCKS, 80K-L) (low serum, on MATRIGEL): −0.7172
